Like-named read-outs stand apart in the source and are kept apart here.
Target: T1, human factor Xa (Homo sapiens, UniProt P00742)
T1 construct: 25 μl human factor Xa (Enzyme Research Laboratories, Inc; South Bend, Ind.); purchased Enzyme Research Laboratories, Inc; South Bend, Ind
Test: Factor Xa chromogenic assay (substrate S-2765);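 note: purified enzyme, compound preincubated with the enzyme for 10 min before substrate addition starts the reaction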
Format: biochemical
Conditions: read-out: Ki(FXa)

[1] = inhibition constant for inhibition of factor Xa, IC50 corrected for substrate competition, 25° C., enzyme 0.5 nM, substrate 140 μM

T1 sequence (P00742 235-488 limits assumed): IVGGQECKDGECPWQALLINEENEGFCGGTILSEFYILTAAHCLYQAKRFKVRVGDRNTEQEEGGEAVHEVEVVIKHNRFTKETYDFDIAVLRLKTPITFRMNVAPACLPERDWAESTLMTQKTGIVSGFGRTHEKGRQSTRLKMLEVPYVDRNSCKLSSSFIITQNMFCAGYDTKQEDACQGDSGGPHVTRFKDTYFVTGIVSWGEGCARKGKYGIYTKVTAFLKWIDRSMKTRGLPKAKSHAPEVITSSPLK
T1 sequence (P00742 41-179 partner limits assumed): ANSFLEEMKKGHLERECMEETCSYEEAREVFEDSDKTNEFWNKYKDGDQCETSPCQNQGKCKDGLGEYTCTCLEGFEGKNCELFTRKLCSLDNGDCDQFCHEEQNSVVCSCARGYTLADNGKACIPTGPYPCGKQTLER

COc1ccc(C(=O)NCC2CCN(c3ccnc(C)c3)CC2)cc1OCCc1ccc(Cl)cc1 [Example 171]
Ki: 130 nM

CC(C)Oc1ccc(C(=O)N2CCN(Cc3ccncc3)CC2)cc1OCCc1ccc(Cl)cc1Cl [Example 184, {3-[2-(2,4-Dichloro-phenyl)-ethoxy]-4-isopropoxy-phenyl}-(4-pyridin-4-ylmethyl-piperazin-1-yl)-methanone]
Ki: 617 nM

O=C(NCC1CCN(c2cc[n+](O)cc2)CC1)c1ccc(Cl)c(OCCc2ccc(Cl)cc2)c1 [Example 231, 4-Chloro-3-[2-(4-chloro-phenyl)-ethoxy]-N-(1′-oxy-3,4,5,6-tetrahydro-2H-[1,4′]bipyridinyl-4-ylmethyl)-benzamide]
Ki: 227 nM

O=C(NCC1CCN(c2ccncc2)CC1)c1ccc(F)c(OCCc2ccc(F)cc2Cl)c1 [Example 215]
Ki: 59 nM

COc1ccc(C(=O)NCC2CC(c3cc[n+]([O-])cc3)=NO2)cc1OCCc1ccc(Cl)cc1Cl (stereo not drawn) [Example 28, 3-[2-(2,4-Dichloro-phenyl)-ethoxy]-N-[3-(1-hydroxy-pyridin-4-yl)-4,5-dihydro-isoxazol-5-ylmethyl]-4-methoxy-benzamide]
Ki [1]: 960 nM

Cc1cc(N2CCC(CNC(=O)c3ccc(Cl)c(OCCc4ccc(Cl)nc4)c3)CC2)ccn1 [Example 167, 4-Chloro-3-[2-(6-chloro-pyridin-3-yl)-ethoxy]-N-(2′-methyl-3,4,5,6-tetrahydro-2H-[1,4′]bipyridinyl-4-ylmethyl)-benzamide]
Ki: 277 nM

COc1cc(C(=O)N2CCN(Cc3ccncc3)CC2)cc(OCCc2ccc(Cl)cc2Cl)c1Cl [Example 200, {4-Chloro-3-[2-(2,4-dichloro-phenyl)-ethoxy]-5-methoxy-phenyl}-(4-pyridin-4-ylmethyl-piperazin-1-yl)-methanone]
Ki: 108 nM

CCN(CC)C(=O)c1cc(OCCc2ccc(Cl)cc2Cl)cc(C(=O)NCC2CCN(c3ccncc3)CC2)c1 [Example 232, 5-[2-(2,4-Dichloro-phenyl)-ethoxy]-N,N-diethyl-N′-(3,4,5,6-tetrahydro-2H-[1,4′]bipyridinyl-4-ylmethyl)-isophthalamide]
Ki: 192 nM

O=C(NCC1CCN(c2ccncc2)CC1)c1ccc(Cl)c(OCCc2ccc(F)cc2Cl)c1 [Example 207]
Ki: 68 nM

COc1ccc(C(=O)NCC2CCN(c3ccccn3)CC2)cc1OCCc1ccc(Cl)cc1Cl [Example 68, 3-[2-(2,4-Dichloro-phenyl)-ethoxy]-4-methoxy-N-(3,4,5,6-tetrahydro-2H-[1,2′]bipyridinyl-4-ylmethyl)-benzamide]
Ki [1]: 3040 nM

COc1ccc(C(=O)N2CCN(Cc3ccc(C#N)cc3)CC2)cc1OCCc1ccc(Cl)cc1Cl [Example 11, 4-(4-{3-[2-(2,4-Dichloro-phenyl)-ethoxy]-4-methoxy-benzoyl}-piperazin-1-ylmethyl)-benzonitrile]
Ki [1]: 1380 nM

CCOc1cc(C(=O)N2CCN(Cc3ccncc3)CC2)cc(OCCc2ccc(Cl)cc2Cl)c1Br [Example 180, {4-Bromo-3-[2-(2,4-dichloro-phenyl)-ethoxy]-5-ethoxy-phenyl}-(4-pyridin-4-ylmethyl-piperazin-1-yl)-methanone]
Ki: 255 nM

O=C(Nc1cccc(C(=O)NCC2CCN(c3ccncc3)CC2)c1)Nc1ccc(Cl)cn1 [Example 91, 3-[3-(5-Chloro-pyridin-2-yl)-ureido]-N-(3,4,5,6-tetrahydro-2H-[1,4′]bipyridinyl-4-ylmethyl)-benzamide]
Ki: 1390 nM

O=C(c1ccc(CO)c(OCCc2ccc(Cl)cc2Cl)c1)N1CCN(Cc2cc[n+]([O-])cc2)CC1 [Example 18, {3-[2-(2,4-Dichloro-phenyl)-ethoxy]-4-hydroxymethyl-phenyl}-[4-(1-oxy-pyridin-4-ylmethyl)-piperazin-1-yl]-methanone]
Ki [1]: 6200 nM

COc1ccc(C(=O)N2CCN(CC(=O)N3CCCC3)CC2)cc1OCCc1ccc(Cl)cc1Cl [Example 14, 2-(4-{3-[2-(2,4-Dichlorophenyl)-ethoxy]-4-methoxy-benzoyl}-piperazin-1-yl)-1-pyrrolidin-1-yl-ethanone]
Ki [1]: 2180 nM

O=C(c1ccc(Cl)c(OCCc2ccc(Cl)cc2Cl)c1)N1CCN(Cc2cc[n+](O)cc2)CC1 [Example 187, {4-Chloro-3-[2-(2,4-dichloro-phenyl)-ethoxy]-phenyl}-[4-(1-oxy-pyridin-4-ylmethyl)-piperazin-1-yl]-methanone]
Ki: 964 nM

COc1ccc(COc2cc(C(=O)NCC3CCN(c4ccncc4)CC3)ccc2C)cc1 [Example 240]
Ki: 1340 nM

O=C(NCC1CCN(c2ccncc2)CC1)c1cccc(OCCc2ccc(Cl)cc2Cl)n1 [Example 85]
Ki: 304 nM

Cc1ccc(C(=O)N2CCN(Cc3ccncc3)CC2)cc1OCCc1ccc(Cl)cc1Cl [Example 4, {3-[2-(2,4-Dichlorophenyl)-ethoxy]-4-methyl-phenyl}-(4-pyridin-4-ylmethyl-piperazin-1-yl)-methanone]
Ki: 298 nM

COc1ccc(C(=O)NCC2CCN(C3CCCCC3)CC2)cc1OCCc1ccc(Cl)cc1Cl [Example 56]
Ki [1]: 4330 nM

Cc1cc(N2CCC(CNC(=O)c3ccc(Cl)c(OCCc4ccc(Cl)cc4)c3)CC2)ccn1 [Example 223, 4-Chloro-3-[2-(4-chloro-phenyl)-ethoxy]-N-(2′-methyl-3,4,5,6-tetrahydro-2H-[1,4′]bipyridinyl-4-ylmethyl)-benzamide]
Ki: 44 nM

O=C(c1ccc(Cl)c(OCCc2ccc(Cl)cc2Cl)c1)N1CCN(Cc2ccncc2)CC1 [Example 182, {4-Chloro-3-[2-(2,4-dichloro-phenyl)-ethoxy]-phenyl}-(4-pyridin-4-ylmethyl-piperazin-1-yl)-methanone]
Ki: 312 nM

O=C(NCC1CCN(c2cc[n+](O)cc2)CC1)c1ccc(Cl)c(OCCc2ccc(Cl)cc2Cl)c1 [Example 230, 4-Chloro-3-[2-(2,4-dichloro-phenyl)-ethoxy]-N-(1′-oxy-3,4,5,6-tetrahydro-2H-[1,4′]bipyridinyl-4-ylmethyl)-benzamide]
Ki: 649 nM

O=C(c1ccc(Br)c(OCCc2ccc(Cl)cc2Cl)c1)N1CCN(Cc2ccncc2)CC1 [Example 176, {4-Bromo-3-[2-(2,4-dichloro-phenyl)-ethoxy]-phenyl}-(4-pyridin-4-ylmethyl-piperazin-1-yl)-methanone]
Ki: 365 nM

COc1ccc(C(=O)NCC2CCN(c3ccncc3)CC2)cc1OCCc1ccc(Cl)nc1 [Example 145]
Ki: 591 nM

COc1ccc(C(=O)NCC2CCN(C3CCCCCC3)CC2)cc1OCCc1ccc(Cl)cc1Cl [Example 57]
Ki [1]: 6220 nM

Cc1ccc(C(=O)NCC2CCN(c3ccncc3)CC2)cc1OCc1ccc(OC(F)(F)F)cc1 [Example 242]
Ki: 2940 nM

COc1ccc(C(=O)NC2CCN(C3CCOCC3)CC2)cc1OCCc1ccc(Cl)cc1Cl [Example 129]
Ki: 25200 nM

CCOc1ccc(C(=O)N2CCN(Cc3ccncc3)CC2)cc1OCCc1ccc(Cl)cc1Cl [Example 9, {3-[2-(2,4-Dichloro-phenyl)-ethoxy]-4-ethoxy-phenyl}-(4-pyridin-4-ylmethyl-piperazin-1-yl)-methanone]
Ki [1]: 306 nM

COc1cc(C(=O)NCC2CCN(c3ccnc(C)c3)CC2)cc(OCCc2ccc(Cl)cc2)c1Br [Example 225, 4-Bromo-3-[2-(4-chloro-phenyl)-ethoxy]-5-methoxy-N-(2′-methyl-3,4,5,6-tetrahydro-2H-[1,4′]bipyridinyl-4-ylmethyl)-benzamide]
Ki: 65 nM

Reference: patent US7067665B2, “Oxybenzamide derivatives useful for inhibiting factor Xa or Vlla” (Sanofi-Aventis Deutschland GmbH, priority 2000, dated 2006)
